Laboratory results from PMC3942691, “The Dipeptide Monoester Prodrugs of Floxuridine and Gemcitabine—Feasibility of Orally Administrable Nucleoside Analogs” (Pharmaceuticals, 2014).

Tests used:
[1] = tested on: Panc-1 cells; experiment: Uptake study in Panc-1 cells; format: cell-based; conditions: 0.1 mM, 1 h
Procedure: (§1) Caco-2, Panc-1, and AsPC-1 cells were grown on a 6-well plate for 18, 6, and 6 days, respectively. Wells were rinsed with MES (pH 6.0) buffer twice. Fresh MES buffer was reapplied to each well and incubated at 37 °C for 15 min. Each drug was individually tested from freshly prepared solutions in MES buffer (0.1 mM, total 0.3 mL) with the presence and the absence of 10 mM glycyl-proline (Gly-Pro). The solution was placed in each well and incubated at 37 °C for 60 min. Drug solution was removed and 3 mL of ice-cold PBS was immediately placed in each well. Each well was rinsed with 3 mL of cold-PBS twice and 0.5 mL of methanol/H2O (1:1) containing 0.1% TFA was placed in each well. The cell suspension was collected and transferred to a new tube. Those tubes were spun at 1,000 × g at 4 °C for 5 min. The supernatant was mixed with equal amount of water with either 0.1% formic acid or 0.1% ammonium hydroxide for LC-MS analysis. The cell pullets were used to determine protein amount with the Bio-Rad DC Protein Assay using bovine serum albumin as a standard.
(§2) The LC-MS analytical method of 5′-mono amino acid ester prodrugs of floxuridine has been reported previously. The LC-MS analysis of dipeptide monoester prodrugs of floxuridine and gemcitabine along with their parent drugs was modified and performed in a similar manner. Briefly, LC-MS analysis of the uptake drug amount was performed in triplicate on LCMS-2010EV (Shimadzu Scientific Instruments, Kyoto, Japan) equipped with an ESI (electrospray ionization) source. The Shimadzu LC-MS system consisting of Shimadzu LC-20AD pumps with DGU-20A in-line vacuum degasser units, and SIL-20A HT autosampler with an InertSustain C-18, 2.1 × 50 mm, 3 µm particle size, (GL Sciences, Torrance, CA, USA) was used for the separation and the effluent from the column was introduced directly to the ionization source. The system was controlled by Shimadzu LCMS solution software (version 3) to collect and process data. All samples were run with Solvent A and Solvent B with Solvent B gradient changing from 0%–90% at a rate of 13.8%/min over a 22 min run. The mobile phase consisted of 0.1% TFA/water (Solvent A) and 0.1% TFA/acetonitrile (Solvent B) for gemcitabine, gemcitabine prodrug and floxuridine prodrug. The mobile phase consisted of 0.1% ammonium hydroxide/water (Solvent A) and 0.1% ammonium hydroxide /acetonitrile (Solvent B) for floxuridine. The ESI probe was operated with a detector voltage of 1.5 kV, CDL temperature of 250 °C, heat block of 200 °C, and nebulizing gas flow of 1.2 mL/min in positive mode for gemcitabine prodrugs and their metabolites. The drying gas was N2 delivered at 0.1 MPa.

[2] = tested on: Caco-2 cells; experiment: Uptake study in Caco-2 cells; format: cell-based; conditions: 0.1 mM, 1 h
Procedure: as §1
as §2, with “The mobile phase consisted of 0.1% TFA/water (Solvent A) and 0.1% TFA/acetonitrile (Solvent B) for gemcitabine, gemcitabine prodrug and floxuridine prodrug. The mobile phase consisted of 0.1% ammonium hydroxide/water (Solvent A) and 0.1% ammonium hydroxide /acetonitrile (Solvent B) for floxuridine. The ESI probe was operated with a detector voltage of 1.5 kV, CDL temperature of 250 °C, heat block of 200 °C, and nebulizing gas flow of 1.2 mL/min in positive mode for gemcitabine prodrugs and their metabolites. The drying gas was N2 delivered at 0.1 MPa.” left out

[3] = tested on: Panc-1 cells; experiment: Cell proliferation assay (XTT) in Panc-1 cells; format: cell-based
Procedure: Cell proliferation studies were conducted with Panc-1 and AsPC-1 cells. The cells were seeded into 96-well plates at 80,000 cells per well and allowed to attach/grow for 48 h before drug solutions were added. The culture medium (DMEM +10% fetal bovine serum or RPMI-1640 +10% fetal bovine serum) was removed and the cells were gently washed once with sterile pH 6.0 uptake buffer. Floxuridine, 5′-L-phenylalanyl-L-tyrosyl-floxuridine, gemcitabine and 5′-L-phenylalanyl-L-tyrosyl-gemcitabine were 2-fold serially diluted in pH 6.0 uptake buffer from 5 to 0.078 mmol/L. Buffer alone was used as a 100% viability control. The wash buffer was removed and 30 µL drug solution per well was added and incubated at 37 °C for 2 h in the cell incubator. After this time, the drug solutions were removed and the cells were again gently washed twice with sterile uptake buffer. The culture medium was then added to each well after washing. The cells were allowed to recover for 24 h before evaluating cell viability via 2,3-bis[2-methoxy-4-nitro-5-sulfophenyl]-2H-tetrazolium-5-carboxanilide inner salt (XTT) assays. A mixture (30 µL) containing XTT (1 mg/mL) in sterile RPMI-1640 without phenol red and phenazine methosulfate (N-methyldibenzopyrazine methyl sulfate in sterile PBS, 0.383 mg/mL) reagents were added to the cells and incubated at 37 °C for 1 h, after which the absorbance at 450 nm was read. The concentrations required to inhibit cell growth by 50% (GI50) were calculated using GraphPad Prism version 3.0 by nonlinear data fitting.

[4] = Enzymatic stability in Panc-1 cell homogenates; format: in vitro ADME; conditions: human, Panc-1 cell homogenates, pH 7.4; 500 µg/mL protein, 37 °C; read-out: Panc-1 cell homogenates t1/2
Procedure: Confluent Caco-2, Panc-1, and AsPC-1cells were rinsed twice with phosphate buffered saline (PBS). The cells were lysed with phosphate buffer (pH 7.4) by ultrasonication (Micro ultrasonic cell disrupter Model KT40, Kontes, Vineland, NJ, USA), and pelleted by centrifugation for 5 min at 1,000 × g. Protein amount was quantified with the Bio-Rad (Hercules, CA, USA) DC Protein Assay using bovine serum albumin as a standard. The amount of protein was adjusted to 500 µg/mL and hydrolysis reactions were carried out in 96-well plates (Corning). Caco-2, Panc-1, and AsPC-1 cell suspensions (250 µL) were placed in triplicate wells, the reactions were started with the addition of substrate, and cells were incubated at 37 °C for 120 min. At the desired time point, sample aliquots (35 µL) were removed and added to acetonitrile (ACN, 150 µL) with 0.1% TFA. The mixtures were filtered with a 0.45 µm filters at 1,000 × g for 10 min at 4 °C. The filtrate was then analyzed via reverse-phase HPLC.
The stability samples of prodrugs and their metabolites, and perfusion samples were determined on an Agilent HPLC system (Agilent Technologies, Santa Clara, CA, USA). The HPLC system consisted of Agilent pumps (1100 series), an Agilent autosampler (1200 series), and an Agilent UV-Vis detector (1100 series) controlled by Chemstation® 32 software (version B.01.03). Samples were resolved in an Agilent Eclipse Plus C18 reverse-phase column (3.5 µm, 4.6 × 75 mm) equipped with a guard column. The mobile phase consisted of 0.1% TFA/water (Solvent A) and 0.1% TFA/acetonitrile (Solvent B) with the solvent B gradient changing from 0%–56% at a rate of […] during a 15 min run for gemcitabine and gemcitabine prodrugs. Standard curves generated for each prodrug and their parent drug were utilized for quantitation of integrated area under peaks. The detection wavelength was 254 nm and spectra were acquired in the 220–380 nm wavelength range. The detection wavelength for phenol red was 430 nm.
The experiments concerning drug and their prodrug stability were performed at 37 °C in 0.01 N HCl, SIF (pH 6.0), and pH 7.4 phosphate buffer. […] Prodrug metabolites such as floxuridine, 5-fluorouracil (5-FU), gemcitabine, 2′-deoxy-2′,2′-difluorouridine, uracil, and cytosine were monitored along with prodrug disappearance in this experiment.

[5] = Homo sapiens, PANC-1, 2 h exposure, 24 h recovery, XTT

Molecule	Parent drug, share of uptake [1]	Parent drug, share of uptake [2]	GI50 ([3]; tested 5 to 0.078 mmol/L)	Prodrug, share of uptake [1]	half-life [4]	Prodrug, share of uptake [2]	GI50 [3, 5]	uptake amount [1]	GI50 ([3]; Homo sapiens, PANC-1, tested 5 to 0.078 mmol/L)
2′,2′-difluoro-2′-deoxyuridine [Gemcitabine]	20%	95%	> 5 mM						
NC(Cc1ccccc1)C(=O)NC(Cc1ccc(O)cc1)C(=O)OCC1OC(n2cc(F)c(=O)[nH]c2=O)CC1O [5′-L-Phenylalanyl-L-tyrosyl-floxuridine]				98%	40.4 ± 0.2 min	45%	3 ± 0.3 mM		
O=c1[nH]c(=O)n([C@H]2C[C@H](O)[C@@H](CO)O2)cc1F [Floxuridine, 5-fluoro-2′-deoxyuridine]					41.7 ± 6.8 min			not observed	> 5 mM
Nc1ccn(C2OC(COC(=O)C(Cc3ccc(O)cc3)NC(=O)C(N)Cc3ccccc3)C(O)C2(F)F)c(=O)n1 [5′-L-Phenylalanyl-L-tyrosyl-gemcitabine]				9%	30.2 ± 1.1 min	6%	3.2 ± 0.7 mM		
